How the values were obtained:
[1] = system: spinal dorsal horn neurones in SNL rats; experiment: Electrophysiology: electrically-evoked dorsal horn neural responses; format: in vivo, rat; conditions: for AB-Fiber Response, Number of Action Potentials / AD-Fiber Response, Number of Action Potentials / C-Fiber Response, Number of Action Potentials / Input Response, Number of Action Potentials / Post Discharge Response, Number of Action Potentials / Wind-up Response, Number of Action Potentials: SNL rats, mean ± S.E.
Procedure: Electrophysiology experiments were conducted on post-operative days 14-17 in anaesthetised rats.
We recorded the evoked responses of dorsal horn lamina V-VI neurones to stimulation of the peripheral receptive field with: • a train of 16 electrical pulses at 3×C-fibre threshold • mechanical von Frey filaments of increasing force—vf 2 g, 8 g, 26 g and 60 g applied to the centre of the receptive field for 10 seconds • heat—40, 45 and 48° C. applied to the centre of the receptive field by a constant water jet for 10 seconds
Following 3 stable baseline responses, 0.03 mg/kg Palonosetron and 0.10 mg/kg Netupitant were administered into the scruff of the neck by subcutaneous injection. Drug effects were followed for two hours with tests carried out at 10, 30, 50, 70, 90 and 110 minutes post injection.
Input represents the post-synaptic C-fibre-evoked dorsal horn neuronal response following the first of the 16 electrical stimuli in the electrical train. It gives a measure of resting pre-synaptic activity (taken as total neuronal responsiveness upstream of the neurone under study, therefore including afferent excitability, activity at terminals and interneurones) and transmitter release in the absence of potentiation. The baseline ‘input’ response given numerically and graphically in this and other studies, was calculated as the number of C-fibre-evoked action potentials produced by the first stimulus (i.e. initial baseline response) multiplied by the total number of stimuli. Aβ-, Aδ-, and C-fibre responses denote the number of action potentials respectively generated in the spinal cord as a consequence of Aβ-, Aδ-, and C-fibre activity following electrical stimulation of their peripheral receptive field. Our Spike 2 Data Capturing software separates out which incoming action potentials are carried by which fibre according to their latency to arrive in the spinal cord following generation (given the different conduction velocities of the fibres). Thus, those arriving within 20 ms of peripheral stimulation are attributed to Aβ-fibres, Aδ-fibres=20-90 ms, and C-fibre-evoked responses were taken as those recorded 90-300 ms after electrical stimulation. Neuronal responses that trail behind between 300-800 ms post-stimulus are quantified as post-discharge, and represent spinal cord hyperexcitability that results as a consequence of repetitive stimulation of the neurone. Activity-dependent hyperexcitability can additionally be measured as wind-up. This value is calculated as the difference between the total number of action potentials at C-fibre latency produced by the train of 16 electrical stimuli, and ‘input’ as defined and calculated above. Therefore, if the first electrical stimulus elicited 15 C-fibre-evoked action potentials, and the total number of C-fibre-evoked action potentials recorded after 16 stimuli was 350, then wind up=350−([…])=200. If each post-synaptic response was independent of previous activity, then in the example above, the cumulative number of action potentials evoked by C-fibres after the 16 electrical stimuli should theoretically be […]. However, temporal summation of action potentials, and post-synaptic hyperexcitability amplify responses, so wind-up is a measure of the additional action potentials recorded above the predicted baseline level.

SNL and Sham rats = experiment: Rotarod motor performance; format: in vivo, rat; conditions: FIG. 3, 0.03, 0.3 and 3 mg/kg
Excerpt: The rotarod was also used to assess potential effects on motor performance of Netupitant and Palonosetron. Acceleration of the rotarod was set to increase from 0 to 20 revolutions per minute over the period of one minute. Due to initial, non-linear acceleration, rats were placed on the rotarod locked at a speed of 8 revolutions per minute. The rotarod was then set to accelerate and the latency to fall from the rotarod was timed from this point.

Row | Structure (SMILES) | AB-Fiber Response, Number of Action Potentials ([1]; Netu 0.1 mg/kg s.c.) | AD-Fiber Response, Number of Action Potentials ([1]; Netu 0.1 mg/kg s.c.) | C-Fiber Response, Number of Action Potentials ([1]; Netu 0.1 mg/kg s.c.) | Input Response, Number of Action Potentials ([1]; Netu 0.1 mg/kg s.c.) | Post Discharge Response, Number of Action Potentials ([1]; Netu 0.1 mg/kg s.c.) | Wind-up Response, Number of Action Potentials ([1]; Netu 0.1 mg/kg s.c.) | effect on electrophysiological measures of pain control, agent alone [1] | motor performance, total time spent on a rotarod (SNL and Sham rats) | AB-Fiber Response, Number of Action Potentials ([1]; Palo 0.03 mg/kg s.c.) | AD-Fiber Response, Number of Action Potentials ([1]; Palo 0.03 mg/kg s.c.) | C-Fiber Response, Number of Action Potentials ([1]; Palo 0.03 mg/kg s.c.) | Input Response, Number of Action Potentials ([1]; Palo 0.03 mg/kg s.c.) | Post Discharge Response, Number of Action Potentials ([1]; Palo 0.03 mg/kg s.c.) | Wind-up Response, Number of Action Potentials ([1]; Palo 0.03 mg/kg s.c.)
1 | Cc1ccccc1-c1cc(N2CCN(C)CC2)ncc1N(C)C(=O)C(C)(C)c1cc(C(F)(F)F)cc(C(F)(F)F)c1 [Netu, 2-[3,5-bis(trifluoromethyl)phenyl]-N,2-dimethyl-N-[4-(2-methylphenyl)-6-(4-methylpiperazin-1-yl)pyridin-3-yl]propanamide] | 135 ± 10 | 103 ± 13 | 292 ± 45 | 293 ± 46 | 195 ± 29 | 270 ± 38 | independent effect |  |  |  |  |  |  | 
2 | Cl.O=C1c2cccc3c2[C@H](CCC3)CN1[C@@H]1CN2CCC1CC2 [Palo, (3aS)-2-[(S)-1-Azabicyclo[2.2.2]oct-3-yl]-2,3,3a,4,5,6-hexahydro-1-oxo-1Hberiz[de]isoquinoline] |  |  |  |  |  |  | zero or minimal effect | did not impair motor performance | 141 ± 22 | 192 ± 51 | 518 ± 103 | 461 ± 86 | 417 ± 127 | 559 ± 192

— US9358228B2, “Therapeutic combinations of netupitant and palonosetron” (Helsinn Healthcare SA, priority 2011, dated 2016)
